# pIC50: −log10 of the molar value. Structures can show the parent of a compound that is named as a salt.
# Experiments:
# [1] = target: HIV-1 RT (Human immunodeficiency virus type 1 group M subtype B, UniProt P04585); assay: HIV reverse transcriptase assay, inhibitor IC50 determination; type: biochemical; conditions: purified recombinant enzyme, poly(rA)/oligo(dT)16 template-primer, 37° C. 30 min
# Method: Reactions were initiated by adding 4 nM HIV-1 RT and after incubation at 37° C. for 30 min, they were stopped by the addition of 50 μl ice cold 20% TCA and allowed to precipitate at 4° C. for 30 min. The precipitates were collected by applying vacuum to the plate and sequentially washing with 3×200 μl of 10% TCA and 2×200 μl 70% ethanol. Finally, the plates were dried and radioactivity counted in a Packard TopCounter after the addition of 25 μl scintillation fluid per well. IC50's were calculated by plotting % inhibition versus log10 inhibitor concentrations. Representative IC50 data is depicted in TABLE 2.
SMILES,melting point [°C],pIC50 [1]
"N#Cc1cc(Cl)cc(Oc2c(Br)ccc(Cc3nn(COC(=O)CCC(=O)O)c4nnccc34)c2F)c1 (as salt: sodium) [Compound I-3, Succinic acid mono-{3-[4-bromo-3-(3-chloro-5-cyano-phenoxy)-2-fluoro-benzyl]-pyrazolo[3,4-c]pyridazin-1-ylmethyl}ester]",172.6 to 173.9,–
"N#Cc1cc(C#N)cc(Oc2c(Br)ccc(Cc3nn(COC(=O)CCC(=O)O)c4nnccc34)c2F)c1 [Compound I-4, Succinic acid mono-{3-[4-bromo-3-(3,5-dicyano-phenoxy)-2-fluoro-benzyl]-pyrazolo[3,4-c]pyridazin-1-ylmethyl}ester]",175.2 to 176.5,–
"N#Cc1cc(Cl)cc(Oc2c(Br)ccc(Cc3nn(COC(=O)CCC(=O)O)c4nnccc34)c2F)c1 [Compound I-3, Succinic acid mono-{3-[4-bromo-3-(3-chloro-5-cyano-phenoxy)-2-fluoro-benzyl]-pyrazolo[3,4-c]pyridazin-1-ylmethyl}ester]",–,8.31
"N#Cc1cc(Cl)cc(Oc2c(Br)ccc(Cc3nn(COC(=O)CCC(=O)O)c4ncccc34)c2F)c1 [Compound I-1, Succinic acid mono-{3-[4-bromo-3-(3-chloro-5-cyano-phenoxy)-2-fluoro-benzyl]-pyrazolo[3,4-b]pyridin-1-ylmethyl}ester]",183 to 184,–
"CC(C)[C@H](N)C(=O)OCn1nc(Cc2ccc(Br)c(Oc3cc(Cl)cc(C#N)c3)c2F)c2ccnnc21.Cl [Compound I-9, (S)-2-Amino-3-methyl-butyric acid 3-[4-bromo-3-(3-chloro-5-cyano-phenoxy)-2-fluoro-benzyl]-pyrazolo[3,4-c]pyridazin-1-ylmethyl ester]",155 to 156,–
"CC(=O)OCn1nc(Cc2ccc(Br)c(Oc3cc(Cl)cc(C#N)c3)c2F)c2ccnnc21 [Compound I-8, Acetic acid 3-[4-bromo-3-(3-chloro-5-cyano-phenoxy)-2-fluoro-benzyl]-pyrazolo[3,4-c]pyridazin-1-ylmethyl ester]",71.1 to 73,–
"N#Cc1cc(Cl)cc(Oc2c(Br)ccc(Cc3nn(COC(=O)CCCC(=O)O)c4nnccc34)c2F)c1 [Compound I-7, Pentanedioic acid mono-{3-[4-bromo-3-(3-chloro-5-cyano-phenoxy)-2-fluoro-benzyl]-pyrazolo[3,4-c]pyridazin-1-ylmethyl}ester]",149.8 to 150.7,–
"COC(=O)n1nc(Cc2ccc(Br)c(Oc3cc(Cl)cc(C#N)c3)c2F)c2ccnnc21 [Compound I-6, 3-[4-Bromo-3-(3-chloro-5-cyano-phenoxy)-2-fluoro-benzyl]-pyrazolo[3,4-c]pyridazine-1-carboxylic acid methyl ester]",164 to 165,–
"N#Cc1cc(Cl)cc(Oc2c(Cl)ccc(Cc3nn(COC(=O)CCC(=O)O)c4nnccc34)c2F)c1 [Compound I-5, Succinic acid mono-{3-[4-chloro-3-(3-chloro-5-cyano-phenoxy)-2-fluoro-benzyl]-pyrazolo[3,4-c]pyridazin-1-ylmethyl}ester]",173 to 174.8,8.13
"CCOC(=O)n1nc(Cc2ccc(Br)c(Oc3cc(Cl)cc(C#N)c3)c2F)c2ccnnc21 [Compound I-11, 3-[4-Bromo-3-(3-chloro-5-cyano-phenoxy)-2-fluoro-benzyl]-pyrazolo[3,4-c]pyridazine-1-carboxylic acid ethyl ester]",139 to 140,–
"N#Cc1cc(Cl)cc(Oc2c(Br)ccc(Cc3nn(COC(=O)COCC(=O)O)c4nnccc34)c2F)c1 [Compound I-10, {3-[4-Bromo-3-(3-chloro-5-cyano-phenoxy)-2-fluoro-benzyl]-pyrazolo[3,4-c]pyridazin-1-ylmethoxycarbonylmethoxy}-acetic acid]",146 to 147,–

# More lines, main results first:
melting point [°C],SMILES,pIC50 [1]
166.1 to 166.9,"CC(C)OC(=O)n1nc(Cc2ccc(Br)c(Oc3cc(Cl)cc(C#N)c3)c2F)c2ccnnc21 [Compound I-20, 3-[4-Bromo-3-(3-chloro-5-cyano-phenoxy)-2-fluoro-benzyl]-pyrazolo[3,4-c]pyridazine-1-carboxylic acid isopropyl ester]",–
159 to 160,"N#Cc1cc(Cl)cc(Oc2c(Br)ccc(Cc3nn(COC(=O)CCCCC(=O)O)c4nnccc34)c2F)c1 [Compound I-15, Hexanedioic acid mono-{3-[4-bromo-3-(3-chloro-5-cyano-phenoxy)-2-fluoro-benzyl]-pyrazolo[3,4-c]pyridazin-1-ylmethyl}ester]",–
119 to 122,"CC(CN(C)C)OC(=O)n1nc(Cc2ccc(Br)c(Oc3cc(Cl)cc(C#N)c3)c2F)c2ccnnc21 (centres unmarked) (as salt: hydrochloride) [Compound I-13, 3-[4-Bromo-3-(3-chloro-5-cyano-phenoxy)-2-fluoro-benzyl]-pyrazolo[3,4-c]pyridazine-1-carboxylic acid 2-dimethylamino-1-methyl-ethyl ester]",–
176 to 178,"N#Cc1cc(Cl)cc(Oc2c(Cl)ccc(Cc3nn(COC(=O)CCCC(=O)O)c4nnccc34)c2F)c1 [Compound I-14, Pentanedioic acid mono-{3-[4-chloro-3-(3-chloro-5-cyano-phenoxy)-2-fluoro-benzyl]-pyrazolo[3,4-c]pyridazin-1-ylmethyl}ester]",–
166.1 to 169.9,"N#Cc1cc(C#N)cc(Oc2c(Cl)ccc(Cc3nn(COC(=O)CCC(=O)O)c4nnccc34)c2F)c1 [Compound I-12, Succinic acid mono-{3-[4-chloro-3-(3,5-dicyano-phenoxy)-2-fluoro-benzyl]-pyrazolo[3,4-c]pyridazin-1-ylmethyl}ester]",–
187.7 to 188.5,"N#Cc1cc(Cl)cc(Oc2c(Br)ccc(Cc3nn(C(=O)c4cccnc4)c4nnccc34)c2F)c1 [Compound I-17, 3-{6-Bromo-2-fluoro-3-[1-(pyridine-3-carbonyl)-1H-pyrazolo[3,4-c]pyridazin-3-ylmethyl]-phenoxy}-5-chloro-benzonitrile]",–
195.5 to 196.9,"CC(=O)n1nc(Cc2ccc(Br)c(Oc3cc(Cl)cc(C#N)c3)c2F)c2ccnnc21 [Compound I-16, 3-[3-(1-Acetyl-1H-pyrazolo[3,4-c]pyridazin-3-ylmethyl)-6-bromo-2-fluoro-phenoxy]-5-chloro-benzonitrile]",–
157.7 to 159.3,"CC(C)C(=O)n1nc(Cc2ccc(Br)c(Oc3cc(Cl)cc(C#N)c3)c2F)c2ccnnc21 [Compound I-21, 3-[6-Bromo-2-fluoro-3-(1-isobutyryl-1H-pyrazolo[3,4-c]pyridazin-3-ylmethyl)-phenoxy]-5-chloro-benzonitrile]",–

# Reference: patent US8063028B2, “Heterocyclic antiviral compounds” (Roche Palo Alto LLC, priority 2007, dated 2011)
